In US20250230155A1 (Vanderbilt University, priority 2021, published 2025):

Target: T1, human mAChR M4 (Homo sapiens, UniProt P08173)
T1 construct: expressed in transfected cells
T1 sequence (P08173 1-479): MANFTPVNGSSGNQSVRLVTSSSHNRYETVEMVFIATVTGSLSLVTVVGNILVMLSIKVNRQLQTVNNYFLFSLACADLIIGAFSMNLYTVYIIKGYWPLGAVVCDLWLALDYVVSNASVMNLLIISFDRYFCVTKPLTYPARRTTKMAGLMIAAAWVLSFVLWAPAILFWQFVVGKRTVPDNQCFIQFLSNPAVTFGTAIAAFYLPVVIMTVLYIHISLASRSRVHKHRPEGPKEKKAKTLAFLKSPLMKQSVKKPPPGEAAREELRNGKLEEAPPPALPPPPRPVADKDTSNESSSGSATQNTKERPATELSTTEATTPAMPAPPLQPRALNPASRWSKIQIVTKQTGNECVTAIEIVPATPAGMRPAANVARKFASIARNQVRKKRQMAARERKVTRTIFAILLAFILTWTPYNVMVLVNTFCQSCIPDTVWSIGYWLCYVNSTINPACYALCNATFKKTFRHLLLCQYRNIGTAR
Assay: mAChR M4 cell-based functional assay (calcium mobilization, CHO-K1 hM4-Gqi5 cells)
Settings: for Emax at 30 µM: CHO-K1, % ACh maximum at 30 μM, human M4; for EC50: positive allosteric modulator activity, increase in the EC20 acetylcholine response, CHO-K1 hM4-Gqi5 cells, read-out: Human M4 EC50; for Emax: CHO-K1
Method in brief: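 CHO-K1 cells stably expressing human M4 with chimeric Gqi5, loaded with Fluo-4 AM; compounds given as 11-point 1:3 curves and calcium flux read on FDSS at 1 Hz. Acetylcholine EC20 added at 144 s, EC80 at 230 s; agonist, PAM (EC20 potentiation) and antagonist (EC80 inhibition) EC50/Emax from four-parameter fits.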

Cc1c(C#N)nnc(N2CCc3ncc(-c4cc(F)nc(F)c4)cc3C2)c1C [compound 75, 6-[3-(2,6-difluoro-4-pyridyl)-7,8-dihydro-5H-1,6-naphthyridin-6-yl]-4,5-dimethyl-pyridazine-3-carbonitrile]
Emax at 30 µM: 58%
EC50: 666 nM

COc1cc(-c2cnc3c(c2)CN(c2nnc(C#N)c(C)c2C)CC3)ccn1 [compound 76, 6-[3-(2-methoxy-4-pyridyl)-7,8-dihydro-5H-1,6-naphthyridin-6-yl]-4,5-dimethyl-pyridazine-3-carbonitrile]
Emax at 30 µM: 76%
EC50: 1490 nM

Cc1cnccc1-c1cnc2c(c1)CN(c1nnc(C#N)c(C)c1C)CC2 [compound 77, 4,5-dimethyl-6-[3-(3-methyl-4-pyridyl)-7,8-dihydro-5H-1,6-naphthyridin-6-yl]pyridazine-3-carbonitrile]
Emax at 30 µM: 89%
EC50: 198 nM

Cc1c(C#N)nnc(N2CCc3ncc(Nc4ncc(F)cc4F)cc3C2)c1C [compound 78, 6-[3-[(3,5-difluoro-2-pyridyl)amino]-7,8-dihydro-5H-1,6-naphthyridin-6-yl]-4,5-dimethyl-pyridazine-3-carbonitrile]
Emax at 30 µM: 65%
EC50: 324 nM

Cc1ccc(Nc2cnc3c(c2)CN(c2nnc(C#N)c(C)c2C)CC3)c(F)n1 [compound 79, 6-[3-[(2-fluoro-6-methyl-3-pyridyl)amino]-7,8-dihydro-5H-1,6-naphthyridin-6-yl]-4,5-dimethyl-pyridazine-3-carbonitrile]
Emax at 30 µM: 82%
EC50: 232 nM

Cc1c(C#N)nnc(N2CCc3ncc(Nc4ncccc4F)cc3C2)c1C [compound 80, 6-[3-[(3-fluoro-2-pyridyl)amino]-7,8-dihydro-5H-1,6-naphthyridin-6-yl]-4,5-dimethyl-pyridazine-3-carbonitrile]
Emax at 30 µM: 72%
EC50: 300 nM

Cc1c(C#N)nnc(N2CCc3ncc(Nc4nc(Cl)ncc4F)cc3C2)c1C [compound 81, 6-[3-[(2-chloro-5-fluoro-pyrimidin-4-yl)amino]-7,8-dihydro-5H-1,6-naphthyridin-6-yl]-4,5-dimethyl-pyridazine-3-carbonitrile]
Emax at 30 µM: 78%
EC50: 539 nM

Cc1c(C#N)nnc(N2CCc3ncc(Nc4cc(Cl)cnc4F)cc3C2)c1C [compound 82, 6-[3-[(5-chloro-2-fluoro-3-pyridyl)amino]-7,8-dihydro-5H-1,6-naphthyridin-6-yl]-4,5-dimethyl-pyridazine-3-carbonitrile]
Emax at 30 µM: 82%
EC50: 157 nM

Cc1nc(Cl)c(C)c(N2CCc3ncccc3C2)n1 [compound 83, 6-(6-chloro-2,5-dimethyl-pyrimidin-4-yl)-7,8-dihydro-5H-1,6-naphthyridine]
Emax: 77%
EC50: 1540 nM

Cc1c(Cl)nc(C2CC2)nc1N1CCc2ncccc2C1 [compound 84, 6-(6-chloro-2-cyclopropyl-5-methyl-pyrimidin-4-yl)-7,8-dihydro-5H-1,6-naphthyridine]
Emax: 71%
EC50: 2240 nM

Cc1nc(Cl)c(C)c(N2CCc3ncc(Nc4ccccc4F)cc3C2)n1 [compound 85, 6-(6-chloro-2,5-dimethyl-pyrimidin-4-yl)-N-(2-fluorophenyl)-7,8-dihydro-5H-1,6-naphthyridin-3-amine]
Emax at 30 µM: 86%
EC50: 361 nM

Cc1nc(Cl)c(C)c(N2CCc3ncc(Nc4cccc(F)c4F)cc3C2)n1 [compound 86, 6-(6-chloro-2,5-dimethyl-pyrimidin-4-yl)-N-(2,3-difluorophenyl)-7,8-dihydro-5H-1,6-naphthyridin-3-amine]
Emax at 30 µM: 84%
EC50: 654 nM

Cc1nc(Cl)c(C)c(N2CCc3ncc(Nc4ccc(F)cc4F)cc3C2)n1 [compound 87, 6-(6-chloro-2,5-dimethyl-pyrimidin-4-yl)-N-(2,4-difluorophenyl)-7,8-dihydro-5H-1,6-naphthyridin-3-amine]
Emax at 30 µM: 82%
EC50: 815 nM

Cc1nc(Cl)c(C)c(N2CCc3ncc(Nc4cc(F)ccc4F)cc3C2)n1 [compound 88, 6-(6-chloro-2,5-dimethyl-pyrimidin-4-yl)-N-(2,5-difluorophenyl)-7,8-dihydro-5H-1,6-naphthyridin-3-amine]
Emax at 30 µM: 86%
EC50: 731 nM

Cc1nc(Cl)c(C)c(N2CCc3ncc(Nc4c(F)cccc4F)cc3C2)n1 [compound 89, 6-(6-chloro-2,5-dimethyl-pyrimidin-4-yl)-N-(2,6-difluorophenyl)-7,8-dihydro-5H-1,6-naphthyridin-3-amine]
Emax at 30 µM: 80%
EC50: 716 nM

Cc1c(Cl)nc(C2CC2)nc1N1CCc2ncc(Nc3ccccc3F)cc2C1 [compound 90, 6-(6-chloro-2-cyclopropyl-5-methyl-pyrimidin-4-yl)-N-(2-fluorophenyl)-7,8-dihydro-5H-1,6-naphthyridin-3-amine]
Emax at 30 µM: 72%
EC50: 7600 nM

Cc1c(Cl)nc(C2CC2)nc1N1CCc2ncc(Nc3cccc(F)c3F)cc2C1 [compound 91, 6-(6-chloro-2-cyclopropyl-5-methyl-pyrimidin-4-yl)-N-(2,3-difluorophenyl)-7,8-dihydro-5H-1,6-naphthyridin-3-amine]
Emax at 30 µM: 67%
EC50: 5570 nM

Cc1nc(Cl)c(C)c(N2CCc3ncc(-c4cnn(C)c4)cc3C2)n1 [compound 92, 6-(6-chloro-2,5-dimethyl-pyrimidin-4-yl)-3-(1-methylpyrazol-4-yl)-7,8-dihydro-5H-1,6-naphthyridine]
Emax at 30 µM: 82%
EC50: 218 nM

Cc1cc(-c2cnc3c(c2)CN(c2nc(C)nc(Cl)c2C)CC3)ccn1 [compound 93, 6-(6-chloro-2,5-dimethyl-pyrimidin-4-yl)-3-(2-methyl-4-pyridyl)-7,8-dihydro-5H-1,6-naphthyridine]
Emax at 30 µM: 95%
EC50: 123 nM

Cc1nc(Cl)c(C)c(N2CCc3ncc(-c4cncs4)cc3C2)n1 [compound 94, 5-[6-(6-chloro-2,5-dimethyl-pyrimidin-4-yl)-7,8-dihydro-5H-1,6-naphthyridin-3-yl]thiazole]
Emax at 30 µM: 91%
EC50: 96.9 nM

Cc1cc(C#N)cnc1N1CCc2ncc(-c3cncs3)cc2C1 [compound 95, 5-methyl-6-(3-thiazol-5-yl-7,8-dihydro-5H-1,6-naphthyridin-6-yl)pyridine-3-carbonitrile]
Emax at 30 µM: 98%
EC50: 84.1 nM

Cc1cc(C#N)cnc1N1CCc2ncc(-c3cnn(C4CC4)c3)cc2C1 [compound 96, 6-[3-(1-cyclopropylpyrazol-4-yl)-7,8-dihydro-5H-1,6-naphthyridin-6-yl]-5-methyl-pyridine-3-carbonitrile]
Emax at 30 µM: 95%
EC50: 302 nM

Cc1cc(C#N)cnc1N1CCc2ncc(-c3cnn(Cc4ccccc4)c3)cc2C1 [compound 97, 6-[3-(1-benzylpyrazol-4-yl)-7,8-dihydro-5H-1,6-naphthyridin-6-yl]-5-methyl-pyridine-3-carbonitrile]
Emax at 30 µM: 81%
EC50: 680 nM

Cc1cc(C#N)cnc1N1CCc2ncc(-c3cnn(C4CCCC4)c3)cc2C1 [compound 98, 6-[3-(1-cyclopentylpyrazol-4-yl)-7,8-dihydro-5H-1,6-naphthyridin-6-yl]-5-methyl-pyridine-3-carbonitrile]
Emax at 30 µM: 79%
EC50: 407 nM

Cc1cc(C#N)cnc1N1CCc2ncc(-c3cnn(C4CCCCC4)c3)cc2C1 [compound 99, 6-[3-(1-cyclohexylpyrazol-4-yl)-7,8-dihydro-5H-1,6-naphthyridin-6-yl]-5-methyl-pyridine-3-carbonitrile]
Emax at 30 µM: 57%
EC50: 740 nM

Cc1cc(C#N)cnc1N1CCc2ncc(-c3cnn(CC(F)(F)F)c3)cc2C1 [compound 100, 5-methyl-6-[3-[1-(2,2,2-trifluoroethyl)pyrazol-4-yl]-7,8-dihydro-5H-1,6-naphthyridin-6-yl]pyridine-3-carbonitrile]
Emax at 30 µM: 80%
EC50: 188 nM

Cc1cc(C#N)cnc1N1CCc2ncc(-c3cnn(C4CCC4)c3)cc2C1 [compound 101, 6-[3-(1-cyclobutylpyrazol-4-yl)-7,8-dihydro-5H-1,6-naphthyridin-6-yl]-5-methyl-pyridine-3-carbonitrile]
Emax at 30 µM: 91%
EC50: 339 nM

Cc1cc(C#N)cnc1N1CCc2ncc(-c3cnn(CC4CC4)c3)cc2C1 [compound 102, 6-[3-[1-(cyclopropylmethyl)pyrazol-4-yl]-7,8-dihydro-5H-1,6-naphthyridin-6-yl]-5-methyl-pyridine-3-carbonitrile]
Emax at 30 µM: 86%
EC50: 362 nM

Cc1cc(C#N)cnc1N1CCc2ncc(-c3cn(C)nc3C)cc2C1 [compound 103, 6-[3-(1,3-dimethylpyrazol-4-yl)-7,8-dihydro-5H-1,6-naphthyridin-6-yl]-5-methyl-pyridine-3-carbonitrile]
Emax at 30 µM: 95%
EC50: 158 nM

Cc1cc(C#N)cnc1N1CCc2ncc(-c3cnn(C)c3)cc2C1 [compound 104, 5-methyl-6-[3-(1-methylpyrazol-4-yl)-7,8-dihydro-5H-1,6-naphthyridin-6-yl]pyridine-3-carbonitrile]
Emax at 30 µM: 99%
EC50: 216 nM
